Counter-ions that a name gives are not always drawn.
The molecules below were run on MDA-231 cancer cells (assay: Inhibition of proliferation assay: cell confluence (IncuCyte live cell imaging)). Conditions: compound tested at 10 μM, images every 3 h over 4-5 d, relative confluence normalised to time zero.
Assay type: cell-based
Description: Inhibition of Proliferation Assay
The confluence value is a surrogate for cell proliferation and growth. The value is expressed as a percent confluence, which represents the fraction of culture dish-surface that is occupied by cells. As the number of cells in the dish increases over time due to proliferation, so will their coverage of that surface increase. Expansion of the cell population on the cell culture-dish surface and confluence have mostly a linear relationship until the cells on the plate surface begin to reach saturation or maximum density.
Confluence is determined based on image analysis. Image based software can identify objects in the image field base on changes to pixel density in a grey scale image. The software can then assign a mask to those pixels within the object. Objects can be ‘gated’ out based on size and shape. To determine cell confluence, images of cells are first masked as objects. The surface area of the image that is masked is measured and compared to the total surface area of the culture dish surface to obtain a percent confluence.
MDA-231 cancer cells were obtained from ATCC. Cells were cultured in Dulbecco's Modified Eagle Medium (DMEM) supplemented with 10% Fetal Bovine Serum (FBS), 2 mM Glutamax, 1 mM Non Essential Amino Acid (NEAA) solution and 1 mM sodium pyruvate. […] Final DMSO concentrations were […]. Images were acquired with an IncuCyte Live Cell Imaging microscopy (Essen Bioscience) at every 3 h under cell culture conditions with 10 OX objective over 4-5 d. Cell confluence was calculated from one field of view per well using the IncuCyte in-built algorithm. Relative confluence values were obtained by normalising each value to the time zero value in each sample.

Point of comparison: C[C@H]1c2ccc(NC(=O)CNC(=O)CCCCCCC[PH](c3ccccc3)(c3ccccc3)c3ccccc3)c(O)c2C(=O)C2=C(O)[C@]3(O)C(=O)C(C(N)=O)=C(O)[C@@H](N(C)C)[C@@H]3[C@@H](O)[C@@H]21 [Example 3, {7-[({[(5R,5aR,6S,6aR,7S,10aS)-9-carbamoyl-7-(dimethylamino)-1,6,8,10a,11-pentahydroxy-5-methyl-10,12-dioxo-5,5a,6,6a,7,10,10a,12-octahydrotetracen-2-yl]carbamoyl}methyl)carbamoyl]heptyl}triphenylphosphonium trifluoroacetate], “% Confluence” value 99.9%. Against it:
- C[C@H]1c2c(NC(=O)CCCCCCCCCCC[P+](c3ccccc3)(c3ccccc3)c3ccccc3)ccc(O)c2C(=O)C2=C(O)[C@]3(O)C(=O)C(C(N)=O)=C(O)[C@@H](N(C)C)[C@@H]3[C@@H](O)[C@@H]21 [Example 13, (11-{[(6aS,10S,10aR,11 S,11 aR,12R)-8-carbamoyl-10-(dimethylamino)-4,6,6a,9,11-pentahydroxy-12-methyl-5,7-dioxo-5,6a,7,10,10a,11,11a,12-octahydrotetracen-1-yl]carbamoyl}undecyl)triphenylphosphonium trifluoroacetate] — lower, 53.7%
- C[C@H]1c2ccc(NC(=O)CCCCC[P+](c3ccccc3)(c3ccccc3)c3ccccc3)c(O)c2C(=O)C2=C(O)[C@]3(O)C(=O)C(C(N)=O)=C(O)[C@@H](N(C)C)[C@@H]3[C@@H](O)[C@@H]21.[Cl-] [Example 18] — lower, 59.1%
